The target of the assay is T1, Ketohexokinase (Human, UniProt P50053).
T1 sequence (P50053 whole entry): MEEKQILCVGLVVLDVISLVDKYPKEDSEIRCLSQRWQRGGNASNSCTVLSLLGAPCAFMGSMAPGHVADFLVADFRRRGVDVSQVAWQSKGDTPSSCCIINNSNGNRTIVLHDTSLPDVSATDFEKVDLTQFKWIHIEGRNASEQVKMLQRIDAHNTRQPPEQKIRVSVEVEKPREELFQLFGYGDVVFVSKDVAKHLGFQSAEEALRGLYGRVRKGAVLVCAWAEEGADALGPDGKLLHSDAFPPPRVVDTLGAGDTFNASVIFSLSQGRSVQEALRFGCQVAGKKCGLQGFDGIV
In words: Enzyme Assay.

pIC50: −log10 of the molar value.

Method: An enzymatic assay was developed to measure KHK-mediated conversion of D-fructose to Fructose-1-P (F-1-P) using High Throughput Mass Spectroscopy (HTMS) as a means of product detection. […] The assay was carried out in 384-well plate format.

Compound `COc1nn(-c2ccccc2)c2cc(N3CN(C4CCNCC4)C3)ccc12` [US9771375, Example 73] showed a pIC50 of 6.41.
Next, `CCc1nn(-c2ccccc2)c2nc(-c3ccc(N4CCNCC4)cc3)nc(O)c12` [US9771375, Example 97]: 5.57.
